From PMC3115942 (PLoS ONE, 2011)
Where two headings read alike, the source gives them in different places.

Tests used:
SUIT-2 cells = assay: Soft agar colony formation assay, SUIT-2; type: cell-based, human; conditions: 14 days
Experimental: (§1) 2000 PANC-1 or SUIT-2 cells were suspended in 1.5 mL growth media containing 0.35% agar (Oxoid), over a 1.5 mL base layer containing 0.5% agar in 6-well plates. The plates were incubated for 14 days (SUIT-2) and 21 days (PANC-1) and then stained for 1 h with 1 ml of 0.02% crystal violet (Sigma-Aldrich), and colonies were counted according to sizes; <0.2 mm (small), 0.2–1 mm (medium) and >1 mm (large). Data represent average numbers with standard deviation bars (n = 3). The experiments have been repeated with similar result.

58 kinases = assay: Millipore kinase diversity panel (whole panel); type: biochemical; conditions: 10 µM
PC-3 cells = assay: Passage growth assay, PC-3; type: cell-based, human; conditions: 5 µM, passages of 5–7 days
Experimental: (§2) 20,000 cells were seeded per well in 6 well plates (triplicates) with DMSO or 5 µM MS-0022. Treatment medium was changed on day 3–5, and after 5–7 days the cells were trypsinized, re-suspended in medium and counted, before reseeding cells at 20,000/well for a subsequent passage. The average growth of MS-0022 treated cells was calculated as a percentage of the growth of the DMSO control at the end of each passage. Graphs display average of percent growth with standard deviation bars (n = 3).

PANC-1 cells [1] = assay: Passage growth assay, PANC-1; type: cell-based, human; conditions: 5 µM, passages of 5–7 days
Experimental: as §2

PANC-1 cells [2] = assay: Soft agar colony formation assay, PANC-1; type: cell-based, human; conditions: 21 days
Experimental: as §1

[3] = Pharmacokinetics in mouse plasma; type: in vivo; conditions: 5 mg/kg; for Cmax / AUC(0-inf) / AUC(0-t) / half-life / k el: mouse plasma; for concentration at 5 min / concentration at 15 min / concentration at 30 min / concentration at 60 min / concentration at 120 min / concentration at 240 min: read-out: blood concentration
Experimental: For pharmacokinetic (PK) analysis, 5 mg/kg MS-0022 was given by IV, PO and IP administration to 7–8 week old male C57BL mice (mouse musculus), and blood was collected after 5, 15, 30, 60, 120, and 240 min, with n = 3. Animals were sacrificed and blood samples (∼0.5 mL each) were collected from the abdominal aorta into EDTA-containing tubes, centrifuged (2–8°C for ∼10 minutes at ∼10000 xg) and plasma harvested into single tubes for each animal and frozen (∼−70°C). Blood samples were analyzed by ChemDiv^'s bioanalytical department. The maximum concentration (Cmax), total drug exposure (the area under the curve to the last quantifiable concentration (AUClast) and as the AUClast value extrapolated to infinity (AUCinf), calculated as AUCinf = AUClast+C(t)last/Kel, where C(t)last is the last measurable concentration), half-life (T1/2) calculated as ln(2)/Kel and Kel calculated as the slope of the terminal linear portion of the concentration/time curve. The WinNonlin Professional 5.2 software (Pharsight Corp.) was used for the calculation of the PK parameters.

MAPKAP-K2(h) = target: T1, MAPKAP-K2(h) (Homo sapiens, UniProt P49137); assay: Millipore kinaseprofiler diversity array; type: biochemical; conditions: 10 µM MS-0022
T1 construct: purchased Millipore (Upstate) KinaseProfiler
T1 sequence (P49137 whole entry): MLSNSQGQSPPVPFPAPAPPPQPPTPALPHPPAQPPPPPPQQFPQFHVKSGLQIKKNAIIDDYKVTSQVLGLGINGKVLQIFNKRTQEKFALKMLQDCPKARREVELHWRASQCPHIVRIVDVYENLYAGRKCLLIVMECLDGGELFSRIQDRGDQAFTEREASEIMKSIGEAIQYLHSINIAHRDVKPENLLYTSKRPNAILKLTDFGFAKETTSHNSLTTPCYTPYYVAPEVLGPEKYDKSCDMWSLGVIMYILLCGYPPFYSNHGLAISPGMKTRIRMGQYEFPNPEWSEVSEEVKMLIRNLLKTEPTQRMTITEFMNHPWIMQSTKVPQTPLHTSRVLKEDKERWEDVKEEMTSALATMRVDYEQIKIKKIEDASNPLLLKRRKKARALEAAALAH
Experimental: (§3) Table 4 Kinase activity in presence of 10 µM MS-0022 in a kinaseprofiler diversity array. | column: Activity %

SRPK1(h) = target: T2, SRPK1(h) (Homo sapiens, UniProt Q96SB4); assay: Millipore kinaseprofiler diversity array; type: biochemical; conditions: 10 µM MS-0022
T2 construct: purchased Millipore (Upstate) KinaseProfiler
T2 sequence (Q96SB4 whole entry): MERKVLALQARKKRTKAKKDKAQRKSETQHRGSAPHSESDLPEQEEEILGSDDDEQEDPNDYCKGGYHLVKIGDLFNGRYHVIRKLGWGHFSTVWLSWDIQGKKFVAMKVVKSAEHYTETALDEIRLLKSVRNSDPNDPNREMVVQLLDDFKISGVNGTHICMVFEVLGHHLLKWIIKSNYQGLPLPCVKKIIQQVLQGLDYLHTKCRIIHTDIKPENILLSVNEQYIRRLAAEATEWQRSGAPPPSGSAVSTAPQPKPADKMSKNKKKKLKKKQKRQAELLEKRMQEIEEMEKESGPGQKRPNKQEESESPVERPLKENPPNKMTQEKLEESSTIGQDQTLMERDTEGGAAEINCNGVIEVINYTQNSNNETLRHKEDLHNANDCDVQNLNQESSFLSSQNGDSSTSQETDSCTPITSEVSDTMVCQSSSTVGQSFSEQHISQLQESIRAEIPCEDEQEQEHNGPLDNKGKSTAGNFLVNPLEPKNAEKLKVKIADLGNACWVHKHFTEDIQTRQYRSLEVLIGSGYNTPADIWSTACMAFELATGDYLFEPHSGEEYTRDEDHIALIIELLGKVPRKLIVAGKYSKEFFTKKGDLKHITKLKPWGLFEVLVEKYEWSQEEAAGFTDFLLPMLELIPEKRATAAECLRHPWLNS
Experimental: as §3

Pim-1(h) = target: T3, Pim-1(h) (Homo sapiens, UniProt P11309); assay: Millipore kinaseprofiler diversity array; type: biochemical; conditions: 10 µM MS-0022
T3 construct: purchased Millipore (Upstate) KinaseProfiler
T3 sequence (P11309 whole entry): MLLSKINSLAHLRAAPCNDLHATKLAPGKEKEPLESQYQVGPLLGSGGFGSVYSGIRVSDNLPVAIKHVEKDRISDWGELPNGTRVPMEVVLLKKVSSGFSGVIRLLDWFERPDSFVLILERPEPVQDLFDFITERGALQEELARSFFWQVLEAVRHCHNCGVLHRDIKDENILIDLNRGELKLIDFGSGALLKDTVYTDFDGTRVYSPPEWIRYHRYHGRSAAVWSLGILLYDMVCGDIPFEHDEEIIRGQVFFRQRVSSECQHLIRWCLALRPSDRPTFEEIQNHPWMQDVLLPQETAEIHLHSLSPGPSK
Experimental: as §3

PRAK(h) = target: T4, PRAK(h) (Homo sapiens, UniProt Q8IW41); assay: Millipore kinaseprofiler diversity array; type: biochemical; conditions: 10 µM MS-0022
T4 construct: purchased Millipore (Upstate) KinaseProfiler
T4 sequence (Q8IW41 whole entry): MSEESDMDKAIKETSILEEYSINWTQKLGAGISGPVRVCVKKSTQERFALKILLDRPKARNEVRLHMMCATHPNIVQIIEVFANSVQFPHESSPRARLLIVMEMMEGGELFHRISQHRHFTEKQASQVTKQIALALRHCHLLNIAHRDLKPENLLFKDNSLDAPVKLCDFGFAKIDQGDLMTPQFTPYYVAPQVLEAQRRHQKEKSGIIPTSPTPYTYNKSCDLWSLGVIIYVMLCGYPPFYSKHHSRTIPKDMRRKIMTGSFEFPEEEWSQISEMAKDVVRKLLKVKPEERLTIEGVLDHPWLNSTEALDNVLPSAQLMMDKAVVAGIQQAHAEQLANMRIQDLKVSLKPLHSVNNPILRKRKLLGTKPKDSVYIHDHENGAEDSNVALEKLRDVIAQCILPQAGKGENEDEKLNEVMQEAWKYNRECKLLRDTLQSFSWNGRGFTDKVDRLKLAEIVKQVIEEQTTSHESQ
Experimental: as §3

LOK(h) = target: T5, LOK(h) (Homo sapiens, UniProt O94804); assay: Millipore kinaseprofiler diversity array; type: biochemical; conditions: 10 µM MS-0022
T5 construct: purchased Millipore (Upstate) KinaseProfiler
T5 sequence (O94804 whole entry): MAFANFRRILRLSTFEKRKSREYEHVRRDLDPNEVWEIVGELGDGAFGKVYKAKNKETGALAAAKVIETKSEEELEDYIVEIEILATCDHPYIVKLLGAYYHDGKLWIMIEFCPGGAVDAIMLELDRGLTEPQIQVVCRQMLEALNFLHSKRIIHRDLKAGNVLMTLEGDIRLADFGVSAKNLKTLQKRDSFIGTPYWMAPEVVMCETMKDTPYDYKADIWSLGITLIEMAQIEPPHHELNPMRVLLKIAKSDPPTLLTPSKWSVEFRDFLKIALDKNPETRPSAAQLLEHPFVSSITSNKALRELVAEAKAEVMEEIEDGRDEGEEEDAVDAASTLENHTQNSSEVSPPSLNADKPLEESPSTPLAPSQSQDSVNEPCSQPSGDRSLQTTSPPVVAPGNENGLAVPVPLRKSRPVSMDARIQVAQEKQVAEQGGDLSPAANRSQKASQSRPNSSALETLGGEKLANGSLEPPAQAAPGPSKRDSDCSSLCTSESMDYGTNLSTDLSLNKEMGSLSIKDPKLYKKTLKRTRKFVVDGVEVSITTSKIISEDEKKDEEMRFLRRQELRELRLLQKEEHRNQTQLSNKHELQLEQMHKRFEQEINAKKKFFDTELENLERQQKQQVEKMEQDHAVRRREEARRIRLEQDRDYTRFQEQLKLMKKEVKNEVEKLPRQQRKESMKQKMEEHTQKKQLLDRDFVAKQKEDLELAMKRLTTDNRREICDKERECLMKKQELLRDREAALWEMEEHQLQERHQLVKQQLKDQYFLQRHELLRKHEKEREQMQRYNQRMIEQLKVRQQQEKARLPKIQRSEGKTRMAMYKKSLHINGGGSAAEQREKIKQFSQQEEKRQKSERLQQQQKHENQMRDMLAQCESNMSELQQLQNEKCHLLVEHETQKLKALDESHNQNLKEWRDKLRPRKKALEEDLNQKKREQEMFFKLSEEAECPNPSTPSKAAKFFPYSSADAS
Experimental: as §3

CDK2/cyclinA(h) = target: T6, CDK2/cyclinA(h) (Homo sapiens, UniProt P24941); assay: Millipore kinaseprofiler diversity array; type: biochemical; conditions: 10 µM MS-0022
T6 construct: purchased Millipore (Upstate) KinaseProfiler
Experimental: as §3

PKA(h) = target: T7, PKA(h) (Homo sapiens, UniProt P17612); assay: Millipore kinaseprofiler diversity array; type: biochemical; conditions: 10 µM MS-0022
T7 construct: purchased Millipore (Upstate) KinaseProfiler
Experimental: as §3

[4] = system: GLI1 mRNA in PANC-1 cells; assay: Real time PCR of GLI1 mRNA in PANC-1; type: cell-based, human; conditions: 5 µM, 48 hrs
Experimental: Cells were lysed for RNA extraction after 48 or 72 hours of treatment. Total RNA from cultured cells or tumor tissue was isolated using the GeneElute miniprep kit (Sigma-Aldritch) following the manufacturer^'s instructions. cDNA was synthesized from the isolated mRNA using the Retroscript kit (Ambion), and real-time PCR was carried out using the SYBR Green PCR master mix (Stratagene) according to the manufacturer^'s instructions with an Mx3000P cycler (Stratagene). The relative concentrations of cDNA present in each sample were calculated by the MxPro software (Stratagene), normalized for GAPDH (mRNA from cells) or GUS (mRNA from tumors). For real time PCR primer sequences see Table 6. For the tumor tissue real time PCR, previously described human and mouse specific primers against GUSB, PTCH1 and GLI1were used.

Cc1cccn2cc(-c3ccc(NC(=O)c4ccccc4Br)cc3)nc12 [MS-0022, 2-bromo-N-(4-(8-methylimidazo[1,2-a]pyridin-2-yl)phenyl)benzamide]
soft agar colony formation, SUIT-2 (SUIT-2 cells): reduction in large (Figure 2C–D, and G) and medium sized colonies
inhibition of kinases of the diversity panel (in words) (58 kinases): did not significantly inhibit
growth reduction after passage 2, PC-3 (PC-3 cells): 80%
growth reduction after passage 2, PANC-1 (PANC-1 cells [1]): 80%
soft agar colony formation, PANC-1 (PANC-1 cells [2]): reduction in large (Figure 2C–D, and G) and medium sized colonies
Cmax ([3]; male, C57BL, mouse, plasma, ip, IP, read-out: Cmax): 378 ng/mL
Cmax ([3]; male, C57BL, mouse, plasma, iv, IV, read-out: Cmax): 934 ng/mL
Cmax ([3]; male, C57BL, mouse, plasma, po, PO, read-out: Cmax): 912 ng/mL
concentration at 5 min ([3]; male, C57BL, mouse, plasma, IP): 30 ng/mL
concentration at 15 min ([3]; male, C57BL, mouse, plasma, IP): 261 ng/mL
concentration at 30 min ([3]; male, C57BL, mouse, plasma, IP): 378 ng/mL
concentration at 60 min ([3]; male, C57BL, mouse, plasma, IP): 158 ng/mL
concentration at 120 min ([3]; male, C57BL, mouse, plasma, IP): 56 ng/mL
concentration at 240 min ([3]; male, C57BL, mouse, plasma, IP): 15 ng/mL
concentration at 5 min ([3]; male, C57BL, mouse, plasma, IV): 934 ng/mL
concentration at 15 min ([3]; male, C57BL, mouse, plasma, IV): 712 ng/mL
concentration at 30 min ([3]; male, C57BL, mouse, plasma, IV): 626 ng/mL
concentration at 60 min ([3]; male, C57BL, mouse, plasma, IV): 620 ng/mL
concentration at 120 min ([3]; male, C57BL, mouse, plasma, IV): 253 ng/mL
concentration at 240 min ([3]; male, C57BL, mouse, plasma, IV): 73 ng/mL
concentration at 5 min ([3]; male, C57BL, mouse, plasma, PO): 468 ng/mL
concentration at 15 min ([3]; male, C57BL, mouse, plasma, PO): 912 ng/mL
concentration at 30 min ([3]; male, C57BL, mouse, plasma, PO): 461 ng/mL
concentration at 60 min ([3]; male, C57BL, mouse, plasma, PO): 437 ng/mL
concentration at 120 min ([3]; male, C57BL, mouse, plasma, PO): 180 ng/mL
concentration at 240 min ([3]; male, C57BL, mouse, plasma, PO): 51 ng/mL
bioavailability ([3]; male, C57BL, plasma, po, mouse, read-out: Per oral bioavailability): 98%
AUC(0-inf) ([3]; male, C57BL, IP): 437 ng·h/mL
AUC(0-t) ([3]; male, C57BL, IP): 417 ng·h/mL
half-life ([3]; male, C57BL, IP): 54.8 min
k el ([3]; male, C57BL, IP): 0.00021 s⁻¹
AUC(0-inf) ([3]; male, C57BL, IV): 1560 ng·h/mL
AUC(0-t) ([3]; male, C57BL, IV): 1460 ng·h/mL
half-life ([3]; male, C57BL, IV): 59.3 min
k el ([3]; male, C57BL, IV): 0.000195 s⁻¹
AUC(0-inf) ([3]; male, C57BL, PO): 1140 ng·h/mL
AUC(0-t) ([3]; male, C57BL, PO): 1070 ng·h/mL
half-life ([3]; male, C57BL, PO): 59.1 min
k el ([3]; male, C57BL, PO): 0.000195 s⁻¹
Cmax ([3]; IP): 377.7 ng/mL
Cmax ([3]; IV): 934.3 ng/mL
activity at 10 µM (MAPKAP-K2(h)): 92%
activity at 10 µM (SRPK1(h)): 102%
activity at 10 µM (Pim-1(h)): 103%
activity at 10 µM (PRAK(h)): 71%
activity at 10 µM (LOK(h)): 93%
activity at 10 µM (CDK2/cyclinA(h)): 98%
activity at 10 µM (PKA(h)): 100%
GLI1 mRNA levels, PANC-1 [4]: without reducing GLI1 mRNA levels
